pIC50: −log10 of the molar value.
How the values were obtained:
[1] = target: BRD3 (His-Brd3(20-477)) (Homo sapiens (Human), UniProt Q15059); assay: TR-FRET in-vitro binding assay for BRD3; settings: single determination or n ≧ 2 independent determinations, read-out: Biochemical IC50 BRD3
Procedure, shortened: (§1)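 His-tagged BRD2, BRD3 and BRD4 fragments tested by TR-FRET at 8 compound concentrations, with DMSO stocks at 10 mM. Read on EnVision after 35 min incubation at 30° C.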

[2] = target: nuclear BRD4-NUT foci in HCC2494 NUT midline carcinoma cells (Homo sapiens, UniProt O60885); assay: cell-based
[3] = test system: THP-1 cells; assay: Cell growth inhibition assay (CellTiter-Glo), THP-1; settings: for GI50: Homo sapiens, THP-1, read-out: THP-1 GI50; for THP-1 TGI: THP-1 cells, total growth inhibition, CellTiter-Glo;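 on all read-outs here: viability read as cellular ATP luminescence after 4 days, 3-fold dilution series from 10 µM, DMSO vehicle-treated cells taken as 100%, cell-free medium wells as −100%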
[4] = test system: MV-4-11 cells; assay: Cell growth inhibition assay (CellTiter-Glo), MV-4-11; settings: for GI50: Homo sapiens, MV4-11, read-out: MV-4-11 GI50; for MV-4-11 TGI: MV-4-11 cells, total growth inhibition, CellTiter-Glo;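 on all read-outs here: cellular ATP luminescence after 4 days, 3-fold dilution series from 10 µM top dose, vehicle (0.1% DMSO) set to 100%, cell-free medium set to −100%, day 0 corrected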
[5] = target: CREBBP bromodomain (His-CREBBP(1081-1197)) (Homo sapiens (Human), UniProt Q92793); assay: AlphaScreen in-vitro binding assay for CREBBP; settings: single determination or n ≧ 2 independent determinations, read-out: Biochemical IC50 CREBBP
CREBBP bromodomain (His-CREBBP(1081-1197)), sequence (Q92793 1081-1197): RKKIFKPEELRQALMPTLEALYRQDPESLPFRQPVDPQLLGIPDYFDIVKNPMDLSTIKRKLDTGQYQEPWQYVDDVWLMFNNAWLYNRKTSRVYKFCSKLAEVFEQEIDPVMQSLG
Procedure, shortened: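 Detection used nickel-chelate acceptor plus streptavidin donor AlphaScreen beads, 1 h room temperature. Percent inhibition fitted by non-linear regression to IC50.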

[6] = test system: K-562 cells; assay: Cell growth inhibition assay (CellTiter-Glo), K-562; settings: for GI50: Homo sapiens, K562, read-out: K-562 GI50; for K-562 TGI: K-562 cells, total growth inhibition, CellTiter-Glo;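 on all read-outs here: cellular ATP measured by luminescence after 4 days of exposure, 3-fold dilution series from 10 µM, DMSO vehicle-treated cells define 100%, cell-free medium wells −100%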
[7] = target: BRD2 (His-Brd2(60-472)) (Homo sapiens (Human), UniProt P25440); assay: TR-FRET in-vitro binding assay for BRD2; settings: single determination or n ≧ 2 independent determinations, read-out: Biochemical IC50 BRD2
BRD2 (His-Brd2(60-472)), sequence (P25440 60-472): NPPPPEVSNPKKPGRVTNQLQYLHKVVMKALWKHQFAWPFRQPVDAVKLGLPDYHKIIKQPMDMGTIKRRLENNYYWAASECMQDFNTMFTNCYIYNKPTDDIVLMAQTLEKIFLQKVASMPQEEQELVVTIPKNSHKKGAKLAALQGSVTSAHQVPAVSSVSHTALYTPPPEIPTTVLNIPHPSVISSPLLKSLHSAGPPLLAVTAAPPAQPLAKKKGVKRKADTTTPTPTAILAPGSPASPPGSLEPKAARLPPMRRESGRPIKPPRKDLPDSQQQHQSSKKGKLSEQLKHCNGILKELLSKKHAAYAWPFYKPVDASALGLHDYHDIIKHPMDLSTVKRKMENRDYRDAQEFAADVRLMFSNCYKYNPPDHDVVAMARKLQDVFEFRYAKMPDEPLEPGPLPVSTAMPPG
Procedure, shortened: as §1

[8] = target: BRD4 (His-Brd4(44-477)) (Homo sapiens (Human), UniProt O60885); assay: TR-FRET in-vitro binding assay for BRD4; settings: single determination or n ≧ 2 independent determinations, read-out: Biochemical IC50 BRD4
Procedure, shortened: as §1

BRD3 (His-Brd3(20-477)), sequence (Q15059 20-477): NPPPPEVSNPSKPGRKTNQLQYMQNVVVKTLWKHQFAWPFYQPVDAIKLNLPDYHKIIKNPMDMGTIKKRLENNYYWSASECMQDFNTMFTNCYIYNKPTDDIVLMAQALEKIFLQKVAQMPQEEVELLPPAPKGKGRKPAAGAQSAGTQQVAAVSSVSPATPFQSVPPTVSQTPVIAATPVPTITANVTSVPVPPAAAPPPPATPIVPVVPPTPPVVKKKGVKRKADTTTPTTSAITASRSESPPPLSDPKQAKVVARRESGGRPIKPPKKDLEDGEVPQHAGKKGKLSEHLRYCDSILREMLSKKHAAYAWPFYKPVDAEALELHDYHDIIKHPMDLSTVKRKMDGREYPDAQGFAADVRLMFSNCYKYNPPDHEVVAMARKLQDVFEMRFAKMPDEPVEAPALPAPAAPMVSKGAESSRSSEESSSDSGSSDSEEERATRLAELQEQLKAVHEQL

| pIC50 [1] | pIC50 [2] | GI50 [3] [nM] | GI50 [4] [nM] | pIC50 [5] | GI50 [6] [nM] | pIC50 [7] | pIC50 [8] | SMILES | THP-1 TGI [3] [nM] | MV-4-11 TGI [4] [nM] | K-562 TGI [6] [nM] |
| --- | --- | --- | --- | --- | --- | --- | --- | --- | --- | --- | --- |
| 7.10 | 7.04 | 152 | 51 | 6.01 | 309 | 7.04 | 7.07 | COc1ccc(-c2nc3c(n2C)C(c2ccc(Cl)cc2)N(c2cc(C)c(=O)n(C)c2)C3=O)cn1 (centres unmarked) [Example 8, 6-(4-chlorophenyl)-5-(1,5-dimethyl-6-oxo-1,6-dihydropyridin-3-yl)-2-(6-methoxypyridin-3-yl)-1-methyl-5,6-dihydropyrrolo[3,4-d]imidazol-4(1H)-one] | 314 | 98 | >10000 |
| 7.47 | 5.68 | 98.7 | 48.4 | < 4.43 | 258 | 7.37 | 7.47 | COc1ccc(-c2nc3c(n2C(C)C)C(c2ccc(Cl)cc2)N(c2cc(C)c4nnc(C)n4c2)C3=O)cn1 (centres unmarked) [Example 9, 6-(4-chlorophenyl)-5-(3,8-dimethyl-[1,2,4]triazolo[4,3-a]pyridin-6-yl)-1-isopropyl-2-(6-methoxypyridin-3-yl)-5,6-dihydropyrrolo[3,4-d]imidazol-4(1H)-one] | 175 | 94.2 | >10000 |
| 7.23 | 6.75 | 158 | 29.7 | 5.20 | 326 | 7.22 | 7.35 | COc1ncc(-c2nc3c(n2C(C)C)C(c2ccc(Cl)cc2)N(c2cc(C)c4nnc(C)n4c2)C3=O)c(OC)n1 (centres unmarked) [Example 10, 6-(4-chlorophenyl)-2-(2,4-dimethoxypyrimidin-5-yl)-5-(3,8-dimethyl-[1,2,4]triazolo[4,3-a]pyridin-6-yl)-1-isopropyl-5,6-dihydropyrrolo[3,4-d]imidazol-4(1H)-one] | 302 | 78.5 | >10000 |
| 7.60 | 6.96 | 90.9 | 48.5 | 5.24 | 330 | 7.39 | 7.74 | Cc1cc(N2C(=O)c3nc(C4=CCOC4)n(C(C)C)c3C2c2ccc(Cl)cc2)cn2c(C)nnc12 (centres unmarked) [Example 11, 6-(4-chlorophenyl)-2-(2,5-dihydrofuran-3-yl)-5-(3,8-dimethyl-[1,2,4]triazolo[4,3-a]pyridin-6-yl)-1-isopropyl-5,6-dihydropyrrolo[3,4-d]imidazol-4(1H)-one] | 202.5 | 97.75 | >10000 |
| 7.68 | 6.43 | 264 | 42.2 | 5.05 | 1040 | 7.37 | 7.70 | Cc1cc(N2C(=O)c3nc(C4=CCCN(C)C4)n(C(C)C)c3C2c2ccc(Cl)cc2)cn2c(C)nnc12 (centres unmarked) [Example 12, 6-(4-chlorophenyl)-5-(3,8-dimethyl-[1,2,4]triazolo[4,3-a]pyridin-6-yl)-1-isopropyl-2-(1-methyl-1,2,5,6-tetrahydropyridin-3-yl)-5,6-dihydropyrrolo[3,4-d]imidazol-4(1H)-one] | 715 | 78.45 | >10000 |
| 7.82 | 7.39 | 66 | 20.4 | 5.64 | 203 | 7.48 | 7.80 | Cc1cc(N2C(=O)c3nc(C4=CCOCC4)n(C(C)C)c3C2c2ccc(Cl)cc2)cn2c(C)nnc12 (centres unmarked) [Example 14, 6-(4-chlorophenyl)-2-(3,6-dihydro-2H-pyran-4-yl)-5-(3,8-dimethyl-[1,2,4]triazolo[4,3-a]pyridin-6-yl)-1-isopropyl-5,6-dihydropyrrolo[3,4-d]imidazol-4(1H)-one] | 120 | 38.8 | >10000 |
| 7.39 | 7.10 | 71.9 | 42 | 4.79 | 318 | 7.32 | 7.43 | Cc1cc(N2C(=O)c3nc(-c4ncco4)n(C(C)C)c3C2c2ccc(Cl)cc2)cn2c(C)nnc12 (centres unmarked) [Example 15, 6-(4-chlorophenyl)-5-(3,8-dimethyl-[1,2,4]triazolo[4,3-a]pyridin-6-yl)-1-isopropyl-2-(oxazol-2-yl)-5,6-dihydropyrrolo[3,4-d]imidazol-4(1H)-one] | 132 | 86.25 | >10000 |
| 7.33 | 6.58 | 220 | 74.3 | < 4.62 | 562 | 7.31 | 7.35 | COc1ccc(-c2nc3c(n2C)C(c2ccc(Cl)cc2)N(c2cc(C)c4nnc(C)n4c2)C3=O)cn1 (centres unmarked) [Example 16, 6-(4-chlorophenyl)-5-(3,8-dimethyl-[1,2,4]triazolo[4,3-a]pyridin-6-yl)-2-(6-methoxypyridin-3-yl)-1-methyl-5,6-dihydropyrrolo[3,4-d]imidazol-4(1H)-one] | 370 | 125.5 | >10000 |
| 7.12 | 6.49 | 322 | 166 | < 4.43 | 1080 | 7.00 | 7.39 | COc1cc(N2C(=O)c3nc(C4CC4)n(C(C)C)c3C2c2ccc(Cl)cc2)cn2c(C)nnc12 (centres unmarked) [Example 17, 6-(4-chlorophenyl)-2-cyclopropyl-1-isopropyl-5-(8-methoxy-3-methyl-[1,2,4]triazolo[4,3-a]pyridin-6-yl)-5,6-dihydropyrrolo[3,4-d]imidazol-4(1H)-one] | 704.5 | 316.5 | >10000 |
| 7.12 | 7.61 | 74.9 | 30.1 | 5.70 | 271 | 7.03 | 7.11 | CCn1c(-c2ccc(OC)nc2)nc2c1C(=O)N(c1cc(C)c(=O)n(C)c1)C2c1ccc(Cl)cc1 (centres unmarked) [Example 38, 6-(4-chlorophenyl)-5-(1,5-dimethyl-6-oxo-1,6-dihydropyridin-3-yl)-3-ethyl-2-(6-methoxypyridin-3-yl)-5,6-dihydropyrrolo[3,4-d]imidazol-4(3H)-one] | 118 | 48.9 | >10000 |
| 7.49 | 7.68 | 26.2 | 11.7 | 6.04 | 72 | 7.62 | 7.55 | CCn1c(-c2ccc(OC)nc2)nc2c1C(=O)N(c1cc(C)c(=O)n(C)c1)[C@@H]2c1ccc(Cl)cc1 [Example 39, (R)-6-(4-chlorophenyl)-5-(1,5-dimethyl-6-oxo-1,6-dihydropyridin-3-yl)-3-ethyl-2-(6-methoxypyridin-3-yl)-5,6-dihydropyrrolo[3,4-d]imidazol-4(3H)-one] | 48.1 | 23.9 | >10000 |
| 7.77 | 8.15 | 13.8 | 6.72 | 6.37 | 45.2 | 7.81 | 7.80 | CCn1c(-c2cccnc2OC)nc2c1C(=O)N(c1cc(C)c(=O)n(C)c1)[C@@H]2c1ccc(Cl)cc1 [Example 41, (R)-6-(4-chlorophenyl)-5-(1,5-dimethyl-6-oxo-1,6-dihydropyridin-3-yl)-3-ethyl-2-(2-methoxypyridin-3-yl)-5,6-dihydropyrrolo[3,4-d]imidazol-4(3H)-one] | 30.6 | 11 | >10000 |
| 7.21 | 7.19 | 74.3 | 53.5 | 5.47 | 274 | 7.19 | 7.16 | CCn1c(-c2ccnn2C)nc2c1C(=O)N(c1cc(C)c(=O)n(C)c1)C2c1ccc(Cl)cc1 (centres unmarked) [Example 42, 6-(4-chlorophenyl)-5-(1,5-dimethyl-6-oxo-1,6-dihydropyridin-3-yl)-3-ethyl-2-(1-methyl-1H-pyrazol-5-yl)-5,6-dihydropyrrolo[3,4-d]imidazol-4(3H)-one] | 126 | 102.3 | >10000 |

Reference: patent US9890166B2, “Imidazopyrrolidine derivatives and their use in the treatment of disease” (NOVARTIS AG, priority 2013, dated 2018)
